Experimental data from patent US4820694A, “Modifications of 3-O-demethylmycinose in macrocin and lactenocin” (priority 1986, dated 1989).
≈ marks a conversion by molar mass, not a printed value. Read-outs that look alike come from different tables or passages of the source.

Key:
Mycoplasma hyorhinis 29E = assay: broth-dilution microtiter MIC test; assay type: cell-based; conditions: Mycoplasma, 29E
Protocol: (§1) The MIC's in Table III were determined by standard agar-dilution assays. The MIC's in Table IV were obtained using conventional brothdilution microtiter tests.

[1] = test system: Pasteurella multocida 60A; assay: broth-dilution microtiter MIC test; assay type: cell-based; conditions: Pasteurella multocida, 60A
Protocol: as §1

[2] = test system: Mycoplasma gallisepticum 29C; assay: broth-dilution microtiter MIC test; assay type: cell-based; conditions: Mycoplasmoides gallisepticum, 29C
Protocol: as §1

Streptococcus sp. 19F = assay: broth-dilution microtiter MIC test; assay type: cell-based; conditions: Streptococcus, SP.19F
Protocol: as §1

[3] = test system: Pasteurella multocida 22A; assay: broth-dilution microtiter MIC test; assay type: cell-based; conditions: Pasteurella multocida, 22A
Protocol: as §1

[4] = test system: Pasteurella hemolytica 23C; assay: broth-dilution microtiter MIC test; assay type: cell-based; conditions: Pasteurella, 23C
Protocol: as §1

[5] = test system: Staphylococcus aureus 19C; assay: broth-dilution microtiter MIC test; assay type: cell-based; conditions: Staphylococcus aureus, 19C
Protocol: as §1

[6] = test system: Pasteurella multocida 68C; assay: broth-dilution microtiter MIC test; assay type: cell-based; conditions: Pasteurella multocida, 68C
Protocol: as §1

[7] = test system: Bordetella bronchiseptica; assay: broth-dilution microtiter MIC test; assay type: cell-based; conditions: Bordetella bronchiseptica
Protocol: as §1

[8] = test system: Pasteurella hemolytica 22C; assay: broth-dilution microtiter MIC test; assay type: cell-based; conditions: Pasteurella, 22C
Protocol: as §1

[9] = test system: Pasteurella hemolytica 41D; assay: broth-dilution microtiter MIC test; assay type: cell-based; conditions: Pasteurella, 41D
Protocol: as §1

[10] = test system: Mycoplasma gallisepticum 15E; assay: broth-dilution microtiter MIC test; assay type: cell-based; conditions: Mycoplasmoides gallisepticum, 15E
Protocol: as §1

[11] = test system: Pasteurella multocida 40G; assay: broth-dilution microtiter MIC test; assay type: cell-based; conditions: Pasteurella multocida, 40G
Protocol: as §1

[12] = test system: Pasteurella multocida 17E; assay: broth-dilution microtiter MIC test; assay type: cell-based; conditions: Pasteurella multocida, 17E
Protocol: as §1

Mycoplasma synoviae 40A = assay: broth-dilution microtiter MIC test; assay type: cell-based; conditions: Mycoplasmopsis synoviae, 40A
Protocol: as §1

[13] = test system: Mycoplasma gallisepticum 36H; assay: broth-dilution microtiter MIC test; assay type: cell-based; conditions: Mycoplasmoides gallisepticum, 36H
Protocol: as §1

[14] = test system: Streptococcus pyogenes C203; assay: standard agar-dilution MIC assay; assay type: cell-based; conditions: Streptococcus pyogenes, C203
Protocol: as §1

[15] = test system: Staphylococcus epidermidis EPI1; assay: standard agar-dilution MIC assay; assay type: cell-based; conditions: Staphylococcus epidermidis, EPI1
Protocol: as §1

[16] = test system: Staphylococcus aureus X1.1; assay: standard agar-dilution MIC assay; assay type: cell-based; conditions: Staphylococcus aureus, X1.1
Protocol: as §1

[17] = test system: Haemophilus influenzae 76; assay: standard agar-dilution MIC assay; assay type: cell-based; conditions: Haemophilus influenzae, 76
Protocol: as §1

Escherichia coli EC14 = assay: standard agar-dilution MIC assay; assay type: cell-based
Protocol: as §1

[18] = test system: Pseudomonas aeruginosa X239; assay: standard agar-dilution MIC assay; assay type: cell-based; conditions: Pseudomonas aeruginosa, X239
Protocol: as §1

[19] = test system: Staphylococcus epidermidis EP12; assay: standard agar-dilution MIC assay; assay type: cell-based
Protocol: as §1

[20] = test system: Klebsiella pneumoniae X68; assay: standard agar-dilution MIC assay; assay type: cell-based; conditions: Klebsiella pneumoniae, X68
Protocol: as §1

[21] = test system: Streptococcus Group D 9960; assay: standard agar-dilution MIC assay; assay type: cell-based; conditions: GROUPD9960, read-out: MIC
Protocol: as §1

[22] = test system: Staphylococcus aureus X400; assay: standard agar-dilution MIC assay; assay type: cell-based; conditions: Staphylococcus aureus, X400
Protocol: as §1

[23] = test system: Haemophilus influenzae C.L.; assay: standard agar-dilution MIC assay; assay type: cell-based; conditions: Haemophilus influenzae; agar-dilution; Ampicillin-sensitive strain; read-out: MIC
Protocol: as §1

[24] = test system: Staphylococcus aureus V41; assay: standard agar-dilution MIC assay; assay type: cell-based; conditions: Staphylococcus aureus, V41
Protocol: as §1

[25] = test system: Streptococcus Group D X66; assay: standard agar-dilution MIC assay; assay type: cell-based; conditions: read-out: MIC
Protocol: as §1

[26] = test system: Streptococcus pyogenes C203; assay: protection of mice experimentally infected with S. pyogenes C203; assay type: in vivo; conditions: mice, mg/kg × 2, doses given 1 and 4 hours postinfection, read-out: ED50
Protocol: The formula 1 compounds have shown in vivo antimicrobial activity against experimentally-induced infections in laboratory animals. When two doses of test compound were administered to mice experimentally infected with S. pyrogenes C203, the activity observed was measured as an ED50 value [effective dose in mg/kg to protect 50% of the test animals: see Warren Wick, et al., J. Bacteriol. 81, 233-235 (1961)].
^a mg/kg × 2; doses given 1 and 4 hours postinfection

[27] = test system: Streptococcus pneumoniae Park I; assay: microbe, parasite or virus in culture; assay type: cell-based; conditions: Streptococcus pneumoniae
Protocol: as §1

[28] = test system: Staphylococcus aureus S13E; assay: microbe, parasite or virus in culture; assay type: cell-based; conditions: Staphylococcus aureus, S13E
Protocol: as §1

[29] = broth-dilution microtiter, read-out: MIC

Compound CCC1OC(=O)CC(O)C(C)C(OC2OC(C)C(OC3CC(C)(O)C(O)C(C)O3)C(N(C)C)C2OC(C)=O)C(CC=O)CC(C)C(=O)C=CC(C)=CC1COC1OC(C)C(OC(C)=O)C(O)C1OC (stereo not drawn) [Compound 1, 2',4'"-Di-O-acetyl-macrocin] has an MIC (Mycoplasma hyorhinis 29E; [29]) of 25 µg/mL (≈ 25.4 µM), an MIC [1] of over 50 µg/mL and an MIC [2, 29] of 0.78 µg/mL (≈ 0.791 µM). It also gave an MIC (Streptococcus sp. 19F; [29]) of 3.12 µg/mL (≈ 3.16 µM), an MIC [3] of over 50 µg/mL and an MIC [4] of over 50 µg/mL. For the same compound, the MIC [5, 29] was 6.25 µg/mL (≈ 6.34 µM), the MIC [6] was over 50 µg/mL and the MIC [7] was over 50 µg/mL. It also gave an MIC [8] of over 50 µg/mL, an MIC [9] of over 50 µg/mL and an MIC [10] of over 50 µg/mL. It also gave an MIC [11] of over 50 µg/mL, an MIC [12] of over 50 µg/mL and an MIC (Mycoplasma synoviae 40A; [29]) of 1.56 µg/mL (≈ 1.58 µM). The MIC [13] was over 50 µg/mL, the MIC [14] was 1 µg/mL (≈ 1.01 µM) and the MIC ([15]; agar-dilution, read-out: MIC) was 2 µg/mL (≈ 2.03 µM). For the same compound, the MIC ([16]; agar-dilution, read-out: MIC) was 2 µg/mL (≈ 2.03 µM), the MIC [17] was 1 µg/mL (≈ 1.01 µM) and the MIC (Escherichia coli EC14) was over 128 µg/mL. For the same compound, the MIC [18] was over 128 µg/mL, the MIC ([19]; agar-dilution, read-out: MIC) was 2 µg/mL (≈ 2.03 µM) and the MIC [20] was over 128 µg/mL. For the same compound, the MIC [21] was 4 µg/mL (≈ 4.06 µM), the MIC [22] was 4 µg/mL (≈ 4.06 µM) and the MIC [23] was 64 µg/mL (≈ 64.9 µM). The MIC ([24]; agar-dilution, Penicillin-resistant strain, read-out: MIC) was 2 µg/mL (≈ 2.03 µM), the MIC [25] was 4 µg/mL (≈ 4.06 µM) and the ED50 ([26]; C203, Oral) was 43.5 mg/kg. It also gave an ED50 ([26]; C203, sc, Subcutaneous) of 6.6 mg/kg, an MIC ([27]; agar-dilution, read-out: MIC) of 0.5 µg/mL (≈ 0.507 µM) and an MIC [28] of 4 µg/mL (≈ 4.06 µM).

CCC1OC(=O)CC(O)C(C)C(OC2OC(C)C(OC3CC(C)(O)C(O)C(C)O3)C(N(C)C)C2OC(C)=O)C(CC=O)CC(C)C(=O)C=CC(C)=CC1COC1OC(C)C(OC(=O)CC(C)C)C(O)C1OC (stereo not drawn) [Compound 5, 2'-O-Acetyl-4'"-O-isovaleryl-macrocin] showed an MIC (Mycoplasma hyorhinis 29E) of 1.56 µg/mL (≈ 1.52 µM), an MIC ([1]; broth-dilution microtiter, Avian isolate, read-out: MIC) of over 50 µg/mL and an MIC [2] of 1.56 µg/mL (≈ 1.52 µM). It also gave an MIC (Streptococcus sp. 19F) of 1.56 µg/mL (≈ 1.52 µM), an MIC [3, 29] of over 50 µg/mL and an MIC [4, 29] of over 50 µg/mL. The MIC [5] was 3.12 µg/mL (≈ 3.03 µM), the MIC [6] was 50 µg/mL (≈ 48.6 µM) and the MIC [7, 29] was over 50 µg/mL. It also gave an MIC [8, 29] of over 50 µg/mL, an MIC [9, 29] of over 50 µg/mL and an MIC [10] of 50 µg/mL (≈ 48.6 µM). For the same compound, the MIC [11, 29] was over 50 µg/mL, the MIC ([12]; broth-dilution microtiter, Bovine isolate, read-out: MIC) was over 50 µg/mL and the MIC (Mycoplasma synoviae 40A) was 1.56 µg/mL (≈ 1.52 µM). For the same compound, the MIC [13] was 50 µg/mL (≈ 48.6 µM), the MIC [14] was 1 µg/mL (≈ 0.973 µM) and the MIC [15] was 2 µg/mL (≈ 1.95 µM). It also gave an MIC [16] of 2 µg/mL (≈ 1.95 µM), an MIC ([17]; agar-dilution, Ampicillin-resistant strain, read-out: MIC) of over 128 µg/mL and an MIC (Escherichia coli EC14; agar-dilution, read-out: MIC) of over 128 µg/mL. It also gave an MIC ([18]; agar-dilution, read-out: MIC) of over 128 µg/mL, an MIC [19] of 2 µg/mL (≈ 1.95 µM) and an MIC ([20]; agar-dilution, read-out: MIC) of over 128 µg/mL. For the same compound, the MIC [21] was 2 µg/mL (≈ 1.95 µM), the MIC [22] was 4 µg/mL (≈ 3.89 µM) and the MIC [23] was over 128 µg/mL. It also gave an MIC [24] of 2 µg/mL (≈ 1.95 µM), an MIC [25] of 2 µg/mL (≈ 1.95 µM) and an ED50 ([26]; C203, Oral) of 54.3 mg/kg. For the same compound, the ED50 ([26]; C203, sc, Subcutaneous) was 9.2 mg/kg, the MIC [27] was 0.5 µg/mL (≈ 0.486 µM) and the MIC [28] was 2 µg/mL (≈ 1.95 µM).
